Data: PMC2233883 (The Journal of General Physiology, 2004)

Target: T1, MloK1 (Mesorhizobium japonicum, UniProt Q98GN8)
T1 sequence (Q98GN8 1-355): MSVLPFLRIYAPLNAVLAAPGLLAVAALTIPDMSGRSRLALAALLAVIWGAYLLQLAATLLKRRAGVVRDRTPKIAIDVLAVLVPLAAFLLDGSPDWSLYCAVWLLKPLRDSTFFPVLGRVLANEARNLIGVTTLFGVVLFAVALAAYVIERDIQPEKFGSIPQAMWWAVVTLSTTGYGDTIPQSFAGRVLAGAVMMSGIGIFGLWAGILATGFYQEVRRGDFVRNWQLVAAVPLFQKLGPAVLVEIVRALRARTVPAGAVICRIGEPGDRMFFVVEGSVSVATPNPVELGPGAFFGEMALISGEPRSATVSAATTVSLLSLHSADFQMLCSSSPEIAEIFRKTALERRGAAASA
Assay: […]+ uptake into MloK1-reconstituted liposomes, dose-response
Format: biochemical

EC50: 600 nM
SMILES: Nc1nc2c(ncn2[C@@H]2O[C@@H]3COP(=O)(O)O[C@H]3[C@H]2O)c(=O)[nH]1 [cGMP]
